The values that follow come from EP4563146A1 (IRBM S.P.A., priority 2023, dated 2025).

In one test the test system is ZIKV replicon. As to the kind of experiment: ZIKV replication inhibition assay (NanoLuc replicon in Vero cells). The settings on record: Zika virus, Vero, 72 h.
The target of test [1] is T1, West Nile Virus (WNV) NS2B-NS3 protease (West Nile virus, UniProt Q9Q6P4).
T1 construct: NS2B1423-1470); purchased R&D 2907-SE-020
As to the kind of experiment: WNV protease inhibition assay. The test is classed as biochemical. Conditions: Table 4; letter codes for IC50. From the text: WNV protease inhibition assay

Where [2] appears, read: read-out: ZIKA Cell_Nanoluc, Vero cells with stable ZIKV replicon, 72 h, Nano-Glo readout.

Structures are written as SMILES. pEC50, pIC50: −log10 of the molar value. Where two headings read alike, the source gives them in different places.

T1 sequence (Q9Q6P4 1423-1470): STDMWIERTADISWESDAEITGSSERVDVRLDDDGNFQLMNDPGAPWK
T1 sequence (Q9Q6P4 1506-1689): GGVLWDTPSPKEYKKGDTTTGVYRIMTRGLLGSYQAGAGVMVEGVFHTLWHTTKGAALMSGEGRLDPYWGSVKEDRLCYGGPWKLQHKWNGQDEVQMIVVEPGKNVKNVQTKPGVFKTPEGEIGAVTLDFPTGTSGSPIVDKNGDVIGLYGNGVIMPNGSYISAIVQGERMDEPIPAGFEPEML

As usually defined, the pIC50 is the negative decadic logarithm of the IC50, by convention in mol/L. High values mean a low IC50, low ones a high IC50. Regarding `Cc1ccccc1CC(=O)Nc1cc(NC(=O)[N-]c2c[n+]([C@H]3CCC[C@@H](CN(C)C)C3)no2)cc(C(F)(F)F)c1` [Example 213, (3-((1S,3R)-3-((Dimethylamino)methyl)-cyclohexyl)-1,2,3-oxadiazol-3-ium-5-yl)((3-(2-(o-tolyl)acetamido)-5-(trifluoromethyl)phenyl)carbamoyl)amide], the pEC50 with ZIKV replicon (setting [2]) was 4.70 to 6.00. The pIC50 in test [1] is 6.00 to 7.00.

Take `Cc1ccccc1CC(=O)Nc1cc(NC(=O)[N-]c2c[n+]([C@@H]3CCC[C@H](O)C3)no2)cc(C(F)(F)F)c1` [Example 214, (3-((1R,3S)-3-Hydroxycyclohexyl)-1,2,3-oxadiazol-3-ium-5-yl)((3-(2-(o-tolyl)acetamido)-5-(trifluoromethyl)phenyl)carbamoyl)amide]: in the test on ZIKV replicon (setting [2]), the pEC50 was 4.70 to 6.00. The compound further gave a pIC50 in test [1] of 6.00 to 7.00.

In the case of `Cc1ccccc1CC(=O)Nc1cc(NC(=O)[N-]c2c[n+]([C@@H]3CCC[C@@H](O)C3)no2)cc(C(F)(F)F)c1` [Example 215, (3-((1R,3R)-3-Hydroxycyclohexyl)-1,2,3-oxadiazol-3-ium-5-yl)((3-(2-(o-tolyl)acetamido)-5-(trifluoromethyl)phenyl)carbamoyl)amide], in the test with ZIKV replicon (setting [2]), the pEC50 was > 7.00. In test [1], the pIC50 is > 7.00.

With `Cc1ncnc(C)c1C1=CCC(C[n+]2cc([N-]C(=O)Nc3ccnc(C(F)(F)F)c3)on2)CC1` (stereo not drawn) [Example 216, (3-((4-(4,6-Dimethylpyrimidin-5-yl)cyclohex-3-en-1-yl)methyl)-1,2,3-oxadiazol-3-ium-5-yl)((2-(trifluoromethyl)pyridin-4-yl)carbamoyl)amide], the pEC50 in the test on ZIKV replicon (setting [2]) is 4.70 to 6.00. The compound also had a pIC50 in test [1] of 6.00 to 7.00.

As to `Cc1ccccc1CC(=O)Nc1cc(NC(=O)[N-]c2c[n+](C[C@H]3CCCC[C@H]3O)no2)cc(C(F)(F)F)c1` [Example 217, (3-(((1R,2R)-2Hydroxycyclohexyl)methyl)-1,2,3-oxadiazol-3-ium-5-yl)((3-(2-(o-tolyl)acetamido)-5-(trifluoromethyl)phenyl)-carbamoyl)amide], the pEC50 in the test on ZIKV replicon (setting [2]) was > 7.00. For the same compound, the negative-log IC50 (pIC50) in test [1] was > 7.00.

For the compound `Cc1ccccc1CC(=O)Nc1cc(NC(=O)[N-]c2c[n+](C[C@@H]3CCCC[C@H]3O)no2)cc(C(F)(F)F)c1` [Example 218, (3-(((1S,2R)-2-Hydroxycyclohexyl)methyl)-1,2,3-oxadiazol-3-ium-5-yl)((3-(2-(o-tolyl)acetamido)-5-(trifluoromethyl)phenyl)-carbamoyl)amide], the pEC50 in the test on ZIKV replicon (setting [2]) was 6.00 to 7.00. The same compound showed a pIC50 in test [1] of 6.00 to 7.00.

On to `O=C([N-]c1c[n+]([C@H]2CCC[C@H](c3cncnc3)C2)no1)Nc1ccnc(C(F)(F)F)c1` [Example 219, (3-((1S,3S)-3-(Pyrimidin-5-yl)cyclohexyl)-1,2,3-oxadiazol-3-ium-5-yl)((2-(trifluoromethyl)pyridin-4-yl)carbamoyl)amide], for which the pEC50 with ZIKV replicon (setting [2]) was 4.70 to 6.00. This compound gave a pIC50 in test [1] of 6.00 to 7.00.

For the compound `O=C([N-]c1c[n+]([C@H]2CCC[C@@H](c3cncnc3)C2)no1)Nc1ccnc(C(F)(F)F)c1` [Example 220, (3-((1S,3R)-3-(Pyrimidin-5-yl)cyclohexyl)-1,2,3-oxadiazol-3-ium-5-yl)((2-(trifluoromethyl)-pyridin-4-yl)carbamoyl)amide], in the test with ZIKV replicon (setting [2]), the pEC50 is 6.00 to 7.00. Also, the pIC50 in test [1] is 6.00 to 7.00.

For `Cc1ccccc1CC(=O)Nc1cc(NC(=O)[N-]c2c[n+]([C@H]3CCC[C@H](c4cncnc4)C3)no2)cc(C(F)(F)F)c1` [Example 221, (3-((1S,3S)-3-(Pyrimidin-5-yl)cyclohexyl)-1,2,3-oxadiazol-3-ium-5-yl)((3-(2-(o-tolyl)acetamido)-5-(trifluoromethyl)phenyl)carbamoyl)amide], in the test on ZIKV replicon (setting [2]), the pEC50 is 4.70 to 6.00. The compound further had a pIC50 in test [1] of 6.00 to 7.00.

For `Cc1ccccc1CC(=O)Nc1cc(NC(=O)[N-]c2c[n+]([C@H]3CCC[C@@H](c4cncnc4)C3)no2)cc(C(F)(F)F)c1` [Example 222, (3-((1S,3R)-3-(Pyrimidin-5-yl)cyclohexyl)-1,2,3-oxadiazol-3-ium-5-yl)((3-(2-(o-tolyl)acetamido)-5-(trifluoromethyl)phenyl)-carbamoyl)amide], the pEC50 in the test with ZIKV replicon (setting [2]) is 6.00 to 7.00. The negative-log IC50 (pIC50) in test [1] was > 7.00.

Regarding `COC(=O)[C@H]1CCC[C@@H]([n+]2cc([N-]C(=O)Nc3cc(NC(=O)Cc4ccccc4C)cc(C(F)(F)F)c3)on2)C1` [Example 223, (3-((1R,3S)-3-(Methoxycarbonyl)cyclohexyl)-1,2,3-oxadiazol-3-ium-5-yl)((3-(2-(o-tolyl)acetamido)-5-(trifluoromethyl)phenyl)-carbamoyl)amide], in the test with ZIKV replicon (setting [2]), the pEC50 was > 7.00. Besides, in test [1], the pIC50 is > 7.00.

With `COC(=O)[C@@H]1CCC[C@@H]([n+]2cc([N-]C(=O)Nc3cc(NC(=O)Cc4ccccc4C)cc(C(F)(F)F)c3)on2)C1` [Example 224, (3-((1R,3R)-3-(Methoxycarbonyl)cyclohexyl)-1,2,3-oxadiazol-3-ium-5-yl)((3-(2-(o-tolyl)-acetamido)-5-(trifluoromethyl)phenyl)-carbamoyl)amide], the pEC50 in the test on ZIKV replicon (setting [2]) was > 7.00. Also, in test [1], the pIC50 is > 7.00.

As for `Cc1ncncc1-c1ccc(C[n+]2cc([N-]C(=O)Nc3ccnc(C(F)(F)F)c3)on2)cc1` [Example 225, (3-(4-(4-Methylpyrimidin-5-yl)benzyl)-1,2,3-oxadiazol-3-ium-5-yl)((2-(trifluoromethyl)pyridin-4-yl)carbamoyl)amide], the pEC50 with ZIKV replicon (setting [2]) is 6.00 to 7.00. In addition, the pIC50 in test [1] was 6.00 to 7.00.

Regarding `Cc1ncnc(C)c1-c1ccc(C[n+]2cc([N-]C(=O)Nc3ccnc(C(C)(C)C)c3)on2)cc1` [Example 226, ((2-(tert-Butyl)pyridin-4-yl)carbamoyl)(3-(4-(4,6-dimethylpyrimidin-5-yl)benzyl)-1,2,3-oxadiazol-3-ium-5-yl)amide], in the test on ZIKV replicon (setting [2]), the pEC50 was 4.70 to 6.00. Further, in test [1], the pIC50 is > 7.00.

As to `COC(=O)[C@H]1CC[C@H]([n+]2cc([N-]C(=O)Nc3cc(NC(=O)Cc4ccccc4C)cc(C(F)(F)F)c3)on2)CC1` [Example 227, (3-((1R,4R)-4-(Methoxycarbonyl)cyclohexyl)-1,2,3-oxadiazol-3-ium-5-yl)((3-(2-(o-tolyl)-acetamido)-5-(trifluoromethyl)phenyl)carbamoyl) amide], the pEC50 with ZIKV replicon (read-out: ZIKA Cell_Nanoluc) was 4.70 to 6.00. Also, the negative logarithm of the IC50 (pIC50) in test [1] is > 7.00.

For the compound `Cc1ccccc1CC(=O)Nc1cc(NC(=O)[N-]c2c[n+]([C@H]3CC[C@H](CO)CC3)no2)cc(C(F)(F)F)c1` [Example 228, (3-((1R,4R)-4-(Hydroxymethyl)cyclohexyl)-1,2,3-oxadiazol-3-ium-5-yl)((3-(2-(o-tolyl)acetamido)-5-(trifluoromethyl)phenyl)carbamoyl)amide], in the test with ZIKV replicon (read-out: ZIKA Cell_Nanoluc), the pEC50 was 6.00 to 7.00. For the same compound, in test [1], the pIC50 is 6.00 to 7.00.

For `Cc1ccccc1CC(=O)Nc1cc(NC(=O)[N-]c2c[n+]([C@H]3CC[C@H](C(=O)O)CC3)no2)cc(C(F)(F)F)c1` [Example 229, (3-((1R,4R)-4-Carboxycyclohexyl)-1,2,3-oxadiazol-3-ium-5-yl)((3-(2-(o-tolyl)acetamido)-5-(trifluoromethyl)phenyl)carbamoyl)amide], the pEC50 with ZIKV replicon (read-out: ZIKA Cell_Nanoluc) was 4.70 to 6.00. This compound showed a pIC50 in test [1] of 6.00 to 7.00.

As for `Cc1ccccc1CC(=O)Nc1cc(NC(=O)[N-]c2c[n+]([C@@H]3CCCC(CO)C3)no2)cc(C(F)(F)F)c1` (stereo partly drawn) [Example 230, (3-((1R)-3-(Hydroxymethyl)cyclohexyl)-1,2,3-oxadiazol-3-ium-5-yl)((3-(2-(o-tolyl)acetamido)-5-(trifluoromethyl)phenyl)carbamoyl)amide], the pEC50 in the test on ZIKV replicon (setting [2]) was 4.70 to 6.00. Also, in test [1], the pIC50 is > 7.00.
